Results on three compounds are retold here after patent publication US7892574B2, “Topical administration of oxazolidinones for transdermal delivery” (Pharmacia & Upjohn Company, LLC, priority 1998, dated 2011).

Format in all cases: in vivo
The subject of assay [1] is otitis media. In words: Human who has an ear infection treated with Oxazolidinone solution. As to conditions: child, ten drops of solution containing 10 mg/ml into the ear twice daily for ten days; before 10 days. Here is the method: A Human Who has an Ear Infection is Treated with Oxazolidinone Solution
Ten drops of a solution containing 10 mg/ml of (S)-N-[[3-[3-fluoro-4-(4-morpholinyl)phenyl]-2-oxo-5-oxazolidinyl]methyl]acetamide is dropped into the ear twice daily for ten days with an eye dropper and is immediately followed by closing the outer ear canal with cotton.

The test system of assay [2] is acne. In words: Human who has acne treated with an Oxazolidinone ointment. As to conditions: person, ointment containing 30 mg/ml, topical, twice daily. Here is the method: A Human Who has Acne is Treated with an Oxazolidinone Ointment
The subject of assay [3] is wound infection. In words: Human with wound infection treated with Oxazolidinone gel. Conditions: person, punctured finger, gel containing 1%, twice daily for 10 days. Here is the method: Human with Wound Infection is Treated with Oxazolidinone Gel
A 65 kg person who has a severely swollen and painful finger with a history of having punctured the finger on a rose thorn two days previously is treated by administering a gel containing 1% N-((5S)-3-(3-fluoro-4-(4-(2-fluoroethyl)-3-oxopiperazin-1-yl)phenyl)-2-oxooxazolidin-5-ylmethyl)acetamide twice daily for 10 days. The site of inflammation is kept lightly covered with a sterile bandage following antibiotic therapy.

Regarding `CC(=O)NC[C@H]1CN(c2ccc(N3CCOCC3)c(F)c2)C(=O)O1` [Example 2, (S)-N-[[3-[3-Fluoro-4-(4-morpholinyl)phenyl]-2-oxo-5-oxazolidinyl]methyl]acetamide], in assay [1], the fever result is “the fever is down” and the pain result is reported as “the pain is gone”. As for `CC(=O)NC[C@H]1CN(c2ccc(N3CCN(C(=O)CO)CC3)c(F)c2)C(=O)O1` [Example 1, (S)-N-[[3-[3-Fluoro-4-[4-(hydroxyacetyl)-1-piperazinyl]-phenyl]-2-oxo-5-oxazolidinyl]methyl]acetamide], the “reddened and swollen pustules after administration” value in assay [2] is recorded as “greatly reduced”. Take `CC(=O)NC[C@H]1CN(c2ccc(N3CCN(CCF)C(=O)C3)c(F)c2)C(=O)O1` [Example 4, N-((5S)-3-(3-Fluoro-4-(4-(2-fluoroethyl)-3-oxopiperazin-1-yl)phenyl)-2-oxooxazolidin-5-ylmethyl)acetamide]: in assay [3], the wound healing result was “The wound heals”.
